Results reported in paper PMC3674150 (Cancer research, 2013).
Read-outs that look alike come from different tables or passages of the source. One block for each compound: values may come before it.

Tests used:
[1] = test system: K562 cells; experiment: Apoptosis assay; type: cell-based, human
[2] = test system: K562 cells
[3] = clinical, cited from earlier work
[4] = test system: BCR-ABL signaling (pCrkL) in K562 cells
[5] = test system: BCR-ABL signaling (pCrkL, pSTAT5) in K562 cells; settings: 500 and 5000 nM for 2 h, FACS
[6] = test system: BCR-ABL signaling (pSTAT5) in primary CML cells; experiment: Phosflow FACS analysis of pSTAT5 in primary CML cells; type: cell-based, human; settings: 100 nM for 4 h
[7] = test system: primary CML cells; experiment: Apoptosis assay in primary CML mononuclear cells after washout; settings: primary CML cells (12/209), 4 h at 100 nM
[8] = test system: K562 cells; experiment: Detection of inhibitors by LC/MS/MS in cellular and media fractions
[9] = 2 h exposure at 10 nM, annexin V at 72 h
[10] = 2 h exposure at 10 nM, standard washout, annexin V at 72 h
[11] = 2 h exposure at 100 nM, annexin V at 72 h
[12] = 2 h exposure at 100 nM, standard washout, annexin V at 72 h
[13] = 100 nM for 2 h, after standard washout

Compound: CNC(=O)c1cc(Oc2ccc(NC(=O)Nc3cc(C(C)(C)C)nn3-c3ccc4ncccc4c3)c(F)c2)ccn1 [DCC-2036, rebastinib]
- concentration inducing substantial apoptosis over untreated ([1]; continuous exposure for 72 h): 25 to 50 nM
- TKI in the media fraction [2]: either not detected or below the lower limit of quantitation

Compound: Cc1nc(Nc2ncc(C(=O)Nc3c(C)cccc3Cl)s2)cc(N2CCN(CCO)CC2)n1 [dasatinib]
- apoptosis after expanded washout [1, 9]: background levels of apoptosis
- apoptosis after standard washout compared to continuous exposure [1, 10]: abolished onset of apoptosis
- apoptosis after expanded washout [1, 11]: moderate reduction in the extent of apoptosis
- apoptosis after standard washout compared to continuous exposure [1, 12]: only slightly diminished the extent of apoptosis
- apoptosis (annexin V-positive cells) ([1]; continuous exposure at 10 nM or 100 nM): substantial onset of apoptosis
- TKI in the media fraction [2]: either not detected or below the lower limit of quantitation
- plasma half-life ([3]; ref 9, 21): 3 to 5 h
- plasma half-life ([3]; ref 10, 11): 3 to 5 h
- serum half-life ([3]; ref 13): 3 to 5 h

- media level of TKI ([2]; human, 2 h, 5000 nM): 25.5 nM
Compound: Cc1cn(-c2cc(NC(=O)c3ccc(C)c(Nc4nccc(-c5cccnc5)n4)c3)cc(C(F)(F)F)c2)cn1 [nilotinib]
- apoptosis after expanded washout ([1]; 2 h exposure at 5000 nM, annexin V at 72 h): reduced to background levels
- apoptosis after standard washout ([1]; 2 h exposure at 5000 nM, standard washout, annexin V at 72 h): substantial apoptosis
- pCrkL signal inhibition at end of exposure ([4]; 2 h exposure at 500 nM): near complete pCrkL signal blockade
- pCrkL signal inhibition at end of exposure ([4]; 2 h exposure at 5000 nM): complete interruption
- pCrkL after expanded washout [5]: pCrkL levels approximating pretreatment levels

Compound: Cc1ccc(C(=O)Nc2ccc(CN3CCN(C)CC3)c(C(F)(F)F)c2)cc1C#Cc1cnc2cccnn12 [ponatinib]
- apoptosis after expanded washout [1, 9]: reduced to background levels
- apoptosis after standard washout compared to continuous exposure [1, 10]: minimal
- apoptosis after expanded washout [1, 11]: unaffected
- apoptosis after standard washout compared to continuous exposure [1, 12]: no reduction in apoptosis
- pSTAT5 at 24 h post expanded washout [6]: approaching but not quite reaching those of untreated cells
- pSTAT5 at 24 h post standard washout [6]: remained inhibited
- pCrkL level after treatment compared to untreated/pretreatment ([4]; 2 h treatment at 10 nM, immunoblot): 25-50%
- pCrkL level after treatment ([4]; 2 h treatment at 100 nM, immunoblot): essentially undetectable levels
- apoptosis after expanded washout [7]: not completely back to baseline
- intracellular inhibitor level ([8]; 10 nM for 2 h, after expanded washout): 0.14 ng/10^6 cells
- intracellular inhibitor level ([8]; 10 nM for 2 h, after standard washout): 0.24 ng/10^6 cells
- intracellular inhibitor level ([8]; 100 nM for 2 h, after expanded washout): 0.87 ng/10^6 cells
- intracellular inhibitor level [8, 13]: 2.11 ng/10^6 cells
- media level of TKI [8, 13]: 6.68 nM
